Source: the supplement of paper PMC10307832

Legend:
Assay in all cases: relative viability (nuclei count vs DMSO), 5 days (fraction); higher = more cells survive
[1] = compound: CC1(C)CCC(CN2CCN(c3ccc(C(=O)NS(=O)(=O)c4ccc(NCC5CCOCC5)c([N+](=O)[O-])c4)c(Oc4cnc5[nH]ccc5c4)c3)CC2)=C(c2ccc(Cl)cc2)C1 [Venetoclax] + C[C@@H](Oc1cc(-c2cnn(C3CCNCC3)c2)cnc1N)c1c(Cl)ccc(F)c1Cl [Crizotinib] (partner 1 µM)
How it was run: (§1)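 Cells from lung cancer lines were seeded into 1536-well plates and, one day later, dosed by pin tool. Treatments were either a single drug or a fixed dose of an anchor drug with five library-drug doses (not always all listed) in √10 steps. After 5 days, nuclei were stained in a one-step fixation (final 0.05% Triton X-100, 1% formaldehyde, 1 ug/ml Hoechst) and counted on 4× images, and relative viability is the treated-to-vehicle nuclei ratio, as the median of duplicate plates.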

[2] = compound: CC1(C)CCC(CN2CCN(c3ccc(C(=O)NS(=O)(=O)c4ccc(NCC5CCOCC5)c([N+](=O)[O-])c4)c(Oc4cnc5[nH]ccc5c4)c3)CC2)=C(c2ccc(Cl)cc2)C1 [Venetoclax] + C[C@]1(O)C[C@@H](c2nc(-c3ccc4ccc(-c5ccccc5)nc4c3)c3c(N)nccn32)C1 [Linsitinib] (partner 1 µM)
How it was run: as §1

[3] = compound: CC1(C)CCC(CN2CCN(c3ccc(C(=O)NS(=O)(=O)c4ccc(NCC5CCOCC5)c([N+](=O)[O-])c4)c(Oc4cnc5[nH]ccc5c4)c3)CC2)=C(c2ccc(Cl)cc2)C1 [Venetoclax] + COc1cc2c(Oc3ccc(NC(=O)C4(C(=O)Nc5ccc(F)cc5)CC4)cc3F)ccnc2cc1OCCCN1CCOCC1 [Foretinib] (partner 0.25 µM)
How it was run: as §1

[4] = compound: Cn1cnc2c(F)c(Nc3ccc(Br)cc3Cl)c(C(=O)NOCCO)cc21 [Selumetinib] + CS(=O)(=O)N1CCN(Cc2cc3nc(-c4cccc5[nH]ncc45)nc(N4CCOCC4)c3s2)CC1 [Pictilisib] (partner 1 µM)
How it was run: as §1

| Cell Line | relative viability ([1]; first compound 0.01 µM) | relative viability ([1]; first compound 0.03162 µM) | relative viability ([1]; first compound 0.1 µM) | relative viability ([1]; first compound 0.3162 µM) | relative viability ([1]; first compound 1 µM) | relative viability ([2]; first compound 0.01 µM) | relative viability ([2]; first compound 0.03162 µM) | relative viability ([2]; first compound 0.1 µM) | relative viability ([2]; first compound 0.3162 µM) | relative viability ([2]; first compound 1 µM) | relative viability ([3]; first compound 0.01 µM) | relative viability ([3]; first compound 0.03162 µM) | relative viability ([3]; first compound 0.1 µM) | relative viability ([3]; first compound 0.3162 µM) | relative viability ([3]; first compound 1 µM) | relative viability ([4]; first compound 0.02 µM) | relative viability ([4]; first compound 0.06325 µM) | relative viability ([4]; first compound 0.2 µM) | relative viability ([4]; first compound 0.6325 µM) |
| --- | --- | --- | --- | --- | --- | --- | --- | --- | --- | --- | --- | --- | --- | --- | --- | --- | --- | --- | --- |
| NCI-H1915 | 0.882 | 0.862 | 0.811 | 0.836 | 0.805 | 1.02 | 1.11 | 0.982 | 1.07 | 1.03 | 1.08 | 1.01 | 1.06 | 1.01 | 1.01 | 0.889 | 0.716 | 0.454 | 0.448 |
| HCC-827 | 0.982 | 0.923 | 0.924 | 0.94 | 0.837 | 0.997 | 0.973 | 1 | 0.978 | 0.87 | 0.966 | 1.03 | 0.971 | 0.98 | 0.916 | 0.82 | 1.23 | 0.79 | 0.904 |
| LXF-289 | 0.832 | 0.816 | 0.776 | 0.798 | 0.702 | 0.973 | 0.955 | 0.895 | 0.932 | 0.856 | 1.05 | 0.975 | 0.991 | 0.941 | 0.913 | 0.735 | 0.615 | 0.537 | 0.552 |
| LC-2-ad | 0.46 | 0.465 | 0.439 | 0.466 | 0.51 | 0.807 | 0.904 | 0.785 | 0.848 | 0.798 | 1.04 | 0.95 | 0.938 | 0.947 | 0.904 | 0.482 | 0.426 | 0.432 | 0.437 |
| NCI-H441 | 0.845 | 0.976 | 0.745 | 0.679 | 0.71 | 0.445 | 0.716 | 0.568 | 0.482 | 0.511 | 0.903 | 0.962 | 0.966 | 0.97 | 0.686 | 0.472 | 0.363 | 0.306 | 0.292 |
| HOP-62 | 0.896 | 0.867 | 0.79 | 1.1 | 0.83 | 1.04 | 0.968 | 1.15 | 0.938 | 0.948 | 1.07 | 1.16 | 0.997 | 1.08 | 1.03 | 0.713 | 0.407 | 0.26 | 0.261 |
| NCI-H2009 | 0.99 | 1.01 | 0.954 | 1.01 | 0.968 | 1.2 | 1.14 | 1.09 | 1.09 | 1.11 | 1.22 | 1.25 | 1.1 | 1.19 | 1.13 | 0.614 | 0.355 | 0.266 | 0.221 |
| NCI-H1755 | 0.769 | 0.885 | 0.872 | 0.863 | 0.779 | 0.978 | 1 | 0.848 | 0.964 | 0.969 | 0.905 | 0.893 | 0.951 | 0.882 | 0.899 | 0.446 | 0.426 | 0.342 | 0.365 |
